These results are taken from paper PMC7098370 (Toxicological Sciences, 2020).

The test system of series [1] is rats. To be noted: oral, ref Domingo et al. (1984), cited from earlier work.
Series [2] can be described thus: Bioelution in simulated gastric fluid. To be noted: for Bioelution of Co in gastric fluid (% release), 2 h / Bioelution of Co in gastric fluid / cobalt release (µg Co/g sample), 2 h: simulated gastric fluid pH 1.5, 2 h, 37°C.
Series [3] in a line: Bioelution in simulated intestinal fluid. To be noted: for Bioelution of Co in intestinal fluid (% release) / Bioelution of Co in intestinal fluid / cobalt release (µg Co/g sample): simulated intestinal fluid pH 7.4, 24 h.
A short description of series [4]: Plasma toxicokinetic study. It is filed as in vivo, rat. The conditions noted are these: for C max / K el / t 1/2 / Bioavailability (relative): 300 mg test item/kg PO; for Bioavailability (relative): vs CoCl2 IV; for Bioavailability calculated from AUC as % of CoCl2 IV AUC, average of m + f: relative bioavailability: oral, average of males and females.
The subject of series [5] is rats. As to the kind of experiment: Acute oral toxicity testing. In kind it is in vivo, rat.
The next series relates to Crl:CD(SD) rats. As to the kind of experiment: Combined RDT study with reproduction/developmental toxicity screening test. It is filed as in vivo, rat. To be noted: oral gavage.
The mark [6] stands for this setting: listed as Co Sulfate Heptahydrate.

Where two headings read alike, the source gives them in different places. Some results are limits rather than exact numbers.

In the case of `O.O.O.O.O.O.O.O=S(=O)([O-])[O-].[Co+2]` [CoSO4, Cobalt sulfate heptahydrate], in the series with rats [1], the “Acute LD50 (mg Co/kg bw)” value is 65 mg Co/kg bw. The “Acute LD50 (mg substance/kg bw)” value in the series on rats [1] was “below 1000 mg substance/kg bw”; with rats [1] (setting [6]), 310 [Domingo et al. (1984)] mg substance/kg bw. Besides, the “Bioelution of Co in gastric fluid (% release), 2 h” value (from here on “Bioelution of Co … (% release), 2 h”) in series [2] is 99.7 % release. Moreover, the “Bioelution of Co in intestinal fluid (% release)” value in series [3] was 64 (24 h) % release. Further, the “Bioelution of Co in intestinal fluid / cobalt release (µg Co/g sample)” value in series [3] (setting [6]) is 139 000 (24 h) µg Co/g sample.

With `[Li+].[O]=[Co][O-]` [CoLiO2, Cobalt lithium oxide], the “Bioelution of Co … (% release), 2 h” value in series [2] is 5.9 % release. Besides, the “Bioelution of Co in intestinal fluid (% release)” value in series [3] is recorded as 0.02 (24 h) % release. Moreover, in series [3] (listed as Co Lithium Dioxide), the “Bioelution of Co in intestinal fluid / cobalt release (µg Co/g sample)” value is on record as 134 (24 h) µg Co/g sample. In series [4] (females), the C max worked out at 2.88 ng/mL, the K el turned out to be 0.0568 h⁻¹, the “t 1/2” value stood at 12.20 h and the “Bioavailability (relative)” value is listed as 0.25 (relative) %. Moreover, the “Bioavailability (relative)” value in series [4] (females, listed as Co lithium dioxide) was found to be 0.25%. Also, in series [4] (males), the C max amounted to 3.45 ng/mL, the K el was determined as 0.0535 h⁻¹, the “t 1/2” value worked out at 13.0 h and the “Bioavailability (relative)” value is reported as 0.30 (relative) %. Besides, the “Bioavailability (relative)” value in series [4] (males, listed as Co lithium dioxide) is listed as 0.3%. In addition, the “Bioavailability calculated from AUC as % of CoCl2 IV AUC, average of m + f: relative bioavailability” value in series [4] (rats) is “Relative bioavailability 0.28%”. Further, the “Acute LD50 (mg Co/kg bw)” value in the series on rats [5] (OECD 401 or 425) was more than 3011 mg Co/kg bw. For the same compound, the “Acute LD50 (mg substance/kg bw)” value in the series on rats [5] (OECD 401 or 425, listed as Co Lithium Dioxide) is reported as more than 5000 mg substance/kg bw.

Regarding Cobalt sulfide [CoS], in series [2] (simulated gastric fluid pH 1.5), the “solubility in gastric fluid” value is “poorly soluble”. In series [2], the “Bioelution of Co … (% release), 2 h” value is listed as 0.58 % release. Besides, the “Bioelution of Co in gastric fluid / cobalt release (µg Co/g sample), 2 h” value in series [2] (listed as Co Sulfide) is 3820 µg Co/g sample. Also, the “solubility in intestinal fluid” value in series [3] (simulated intestinal fluid pH 7.4) is reported as “poorly soluble”. For the same compound, the “Bioelution of Co in intestinal fluid (% release)” value in series [3] is listed as 0.33 (24 h) % release. The “Bioelution of Co in intestinal fluid / cobalt release (µg Co/g sample)” value in series [3] (listed as Co Sulfide) is listed as 2180 (24 h) µg Co/g sample. In addition, the premature deaths result in the series with Crl:CD(SD) rats (all doses) is “None of the exposed animals died prematurely”. Moreover, in the series with Crl:CD(SD) rats (rats), the “NOAEL (F0 generation)” value was 648 mg Co/kg bw/day, the “NOAEL (F1 generation)” value was more than 648 mg Co/kg bw/day and the “NOAEL (reproductive toxicity)” value was more than 648 mg Co/kg bw/day. Also, in series [4] (females), the C max stood at 2.01 ng/mL, the K el is 0.0464 h⁻¹, the “t 1/2” value stood at 14.9 h and the “Bioavailability (relative)” value is given as 0.09 (relative) %. Further, in series [4] (males), the C max amounted to 2.01 ng/mL, the K el was 0.0413 h⁻¹, the “t 1/2” value is given as 16.8 h and the “Bioavailability (relative)” value is 0.08 (relative) %. Besides, the “Bioavailability calculated from AUC as % of CoCl2 IV AUC, average of m + f: relative bioavailability” value in series [4] (rats) was “Relative bioavailability 0.08%”. Besides, the oral bioavailability entry in series [4] (single oral bolus, rats, males and females not distinguished) is given as “below 0.1%”. In the series with rats [5] (OECD 401 or 425), the “Acute LD50 (mg Co/kg bw)” value is more than 7124 mg Co/kg bw and the “Acute LD50 (mg substance/kg bw)” value was “exceeding 11 000 mg substance/kg bw”. Besides, in the series on rats [5] (OECD 401 or 425, listed as Co Sulfide), the “Acute LD50 (mg substance/kg bw)” value is > 11 000 mg substance/kg bw.

Take `[O]=[Co][OH]` [CoOOH, Cobalt oxyhydroxide]: the “Bioelution of Co … (% release), 2 h” value in series [2] is 0.85 % release. Also, in series [2] (listed as Co Oxide Hydroxide), the “Bioelution of Co in gastric fluid / cobalt release (µg Co/g sample), 2 h” value is 4460 µg Co/g sample. In addition, the “Bioelution of Co in intestinal fluid (% release)” value in series [3] is listed as 0.06 (24 h) % release. Further, the “Bioelution of Co in intestinal fluid / cobalt release (µg Co/g sample)” value in series [3] (listed as Co Oxide Hydroxide) is 370 (24 h) µg Co/g sample.
